The values below come from patent publication US8071612B2, “6-alkenyl and 6-phenylalkyl substituted 2-quinolinones and 2-quinoxalinones as poly(ADP-ribose) polymerase inhibitors” (Janssen Pharmaceutica, NV, priority 2004, dated 2011).

Experiment [1] concerns the target T1, PARP-1 enzyme (Homo sapiens, UniProt P09874).
T1 construct: made in house
Briefly: In vitro Scintillation Proximity Assay (SPA) for PARP-1 inhibitory activity. It is filed as biochemical. The note with it: nicked DNA activated PARP-1, [3H]-NAD+, biotinylated histones; read-out: In vitro SPA pIC50 (converted). On the procedure: Compounds of the present invention were tested in an in vitro assay based on SPA technology (proprietary to Amersham Pharmacia Biotech).
In principle, the assay relies upon the well established SPA technology for the detection of poly(ADP-ribosyl)ation of biotinylated target proteins, i.e histones. This ribosylation is induced using nicked DNA activated PARP-1 enzyme and [^3H]-nicotinamide adenine dinucleotide ([^3H]-NAD^+) as ADP-ribosyl donor.
As inducer of PARP-1 enzyme activity, nicked DNA was prepared. For this, 25 mg of DNA (supplier: Sigma) was dissolved in 25 ml DNAse buffer (10 mM Tris-HCl, pH 7.4; 0.5 mg/ml Bovine Serum Albumine (BSA); 5 mM MgCl2.6H2O and 1 mM KCl) to which 50 μl DNAse solution (1 mg/ml in 0.15 M NaCl) was added. After an incubation of 90 min. at 37° C., the reaction was terminated by adding 1.45 g NaCl, followed by a further incubation at 58° C. for 15 min. The reaction mixture was cooled on ice and dialysed at 4° C. for respectively 1.5 and 2 hours against 1.5 l of 0.2 M KCl, and twice against 1.5 l of 0.01 M KCl for 1.5 and 2 h respectively. The mixture was aliquoted and stored at −20° C. Histones (1 mg/ml, type II-A, supplier: Sigma) were biotinylated using the biotinylation kit of Amersham and stored aliquoted at −20° C. A stock solution of 100 mg/ml SPA poly(vinyl toluene) (PVT) beads (supplier: Amersham) was made in PBS. A stock solution of [^3]H-NAD^+ was made by adding 120 μl of [^3H]-NAD^+ (0.1 mCi/ml, supplier: NEN) to 6 ml incubation buffer (50 mM Tris/HCl, pH 8; 0.2 mM DTT; 4 mM MgCl2). A solution of 4 mM NAD^+ (supplier: Roche) was made in incubation buffer (from a 100 mM stock solution in water stored at −20° C.). The PARP-1 enzyme was produced using art known techniques, i.e. cloning and expression of the protein starting from human liver cDNA. Information concerning the used protein sequence of the PARP-1 enzyme including literature references can be found in the Swiss-Prot database under primary accession number P09874. Biotinylated histones and PVT-SPA beads were mixed and pre-incubated for 30 min. at room temperature. PARP-1 enzyme (concentration was lot dependent) was mixed with the nicked DNA and the mixture was pre-incubated for 30 min. at 4° C. Equal parts of this histones/PVT-SPA beads solution and PARP-1 enzyme/DNA solution were mixed and 75 μl of this mixture together with 1 μl of compound in DMSO and 25 μl of [^3H]-NAD^+ was added per well into a 96-well microtiterplate. The final concentrations in the incubation mixture were 2 μg/ml for the biotinylated histones, 2 mg/ml for the PVT-SPA beads, 2 μg/ml for the nicked DNA and between 5-10 μg/ml for the PARP-1 enzyme. After incubation of the mixture for 15 min. at room temperature, the reaction was terminated by adding 100 μl of 4 mM NAD^+ in incubation buffer (final concentration 2 mM) and plates were mixed.
The beads were allowed to sediment for at least 15 min. and plates transferred to a TopCountNXT™ (Packard) for scintillation counting, values were expressed as counts per minute (cpm). For each experiment, controls (containing PARP-1 enzyme and DMSO without compound), a blank incubation (containing DMSO but no PARP-1 enzyme or compound) and samples (containing PARP-1 enzyme and compound dissolved in DMSO) were run in parallel. All compounds tested were dissolved and eventually further diluted in DMSO. In first instance, compounds were tested at a concentration of 10^−5 M or 10^−6M. […] In each test, the blank value was subtracted from both the control and the sample values. The control sample represented maximal PARP-1 enzyme activity. For each sample, the amount of cpm was expressed as a percentage of the mean cpm value of the controls. When appropriate, IC50-values (concentration of the drug, needed to reduce the PARP-1 enzyme activity to 50% of the control) were computed using linear interpolation between the experimental points just above and below the 50% level. […]
In general terms: In a scintillation proximity assay essentially only radioactivity close to the scintillant gives light.

Experiment [2] deals with T1, PARP-1 enzyme. Kind of experiment: In vitro filtration assay for PARP-1 inhibitory activity. The note with it: nicked DNA activated PARP-1, [32P]-NAD, histones; read-out: In vitro filtration assay pIC50 (converted). It is filed as biochemical. On the procedure: Compounds of the present invention were tested in an in vitro filtration assay assessing PARP-1 activity (triggered in the presence of nicked DNA) by means of its histone poly (ADP-ribosyl)ation activity using [^32P]-NAD as ADP-ribosyl donor. The radioactive ribosylated histones were precipitated by trichloroacetic acid (TCA) in 96-well filterplates and the incorporated [^32P] measured using a scintillation counter
A mixture of histones (stock solution: 5 mg/ml in H2O), NAD (stock solution: 100 mM in H2O), and [^32P]-NAD^+ in incubation buffer (50 mM Tris/HCl, pH 8; 0.2 mM DTT; 4 mM MgCl2) was made. A mixture of the PARP-1 enzyme (5-10 μg/ml) and nicked DNA was also made. The nicked DNA was prepared as described in the in vitro SPA for PARP-1 inhibitory activity. Seventy-five μl of the PARP-1 enzyme/DNA mixture together with 1 μl of compound in DMSO and 25 μl of histones-NAD^+/[^32P]-NAD^+ mixture was added per well of a 96-well filterplate (0.45 μm, supplier Millipore). The final concentrations in the incubation mixture were 2 μg/ml for the histones, 0.1 mM for the NAD^+, […] (0.5 μC) for the [^32P]-NAD^+ and 2 μg/ml for the nicked DNA. Plates were incubated for 15 min. at room temperature and the reaction was terminated by the addition of 10 μl ice cold 100% TCA followed by the addition of 10 μl ice-cold BSA solution (1% in H2O). The protein fraction was allowed to precipitate for 10 min. at 4° C. and plates were vacuum filtered. The plates were subsequently washed with, for each well, 1 ml of 10% ice cold TCA, 1 ml of 5% ice cold TCA and 1 ml of 5% TCA at room temperature. Finally 100 μl of scintillation solution (Microscint 40, Packard) was added to each well and the plates were transferred to a TopCountNXT™ (supplier: Packard) for scintillation counting and values were expressed as counts per minute (cpm). For each experiment, controls (containing PARP-1 enzyme and DMSO without compound), a blank incubation (containing DMSO but no PARP-1 enzyme or compound) and samples (containing PARP-1 enzyme and compound dissolved in DMSO) were run in parallel. All compounds tested were dissolved and eventually further diluted in DMSO. In first instance, compounds were tested at a concentration of 10^−5M. […] In each test, the blank value was subtracted from both the control and the sample values. The control sample represented maximal PARP-1 enzyme activity. For each sample, the amount of cpm was expressed as a percentage of the mean cpm value of the controls. When appropriate, IC50-values (concentration of the drug, needed to reduce the PARP-1 enzyme activity to 50% of the control) were computed using linear interpolation between the experimental points just above and below the 50% level. Herein the effects of test compounds are expressed as pIC50 (the negative log value of the IC50-value). As a reference compound, 4-amino-1,8-naphthalimide was included to validate the filtration assay.

T1 sequence (P09874 whole entry): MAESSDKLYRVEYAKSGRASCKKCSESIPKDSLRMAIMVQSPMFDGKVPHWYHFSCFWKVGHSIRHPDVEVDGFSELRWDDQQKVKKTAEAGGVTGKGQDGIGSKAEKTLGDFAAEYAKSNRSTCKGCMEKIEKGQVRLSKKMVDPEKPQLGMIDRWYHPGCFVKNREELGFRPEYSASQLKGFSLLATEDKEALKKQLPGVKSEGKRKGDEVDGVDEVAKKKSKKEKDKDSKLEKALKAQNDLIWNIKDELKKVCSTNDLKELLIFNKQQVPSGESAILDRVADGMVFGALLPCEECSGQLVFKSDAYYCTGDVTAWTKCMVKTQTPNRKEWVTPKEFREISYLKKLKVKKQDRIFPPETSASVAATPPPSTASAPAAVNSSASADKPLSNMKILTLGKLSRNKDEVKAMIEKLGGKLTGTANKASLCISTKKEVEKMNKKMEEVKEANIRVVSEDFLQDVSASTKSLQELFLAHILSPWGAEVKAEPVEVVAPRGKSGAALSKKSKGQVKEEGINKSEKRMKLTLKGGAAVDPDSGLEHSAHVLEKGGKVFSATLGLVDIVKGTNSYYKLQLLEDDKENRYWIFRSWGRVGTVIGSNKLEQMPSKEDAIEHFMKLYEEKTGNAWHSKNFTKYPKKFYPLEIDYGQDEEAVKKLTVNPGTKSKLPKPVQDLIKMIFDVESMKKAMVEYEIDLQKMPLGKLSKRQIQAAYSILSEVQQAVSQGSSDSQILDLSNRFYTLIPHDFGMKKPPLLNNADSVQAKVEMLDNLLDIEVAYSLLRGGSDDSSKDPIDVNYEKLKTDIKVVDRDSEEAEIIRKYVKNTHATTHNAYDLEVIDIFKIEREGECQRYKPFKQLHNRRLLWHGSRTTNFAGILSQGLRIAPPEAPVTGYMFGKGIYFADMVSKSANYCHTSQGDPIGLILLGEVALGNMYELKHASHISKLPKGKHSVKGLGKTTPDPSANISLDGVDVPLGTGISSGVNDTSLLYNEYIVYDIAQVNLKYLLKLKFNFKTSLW

For the compound `CCc1cc2cc(C(c3ccc(Cl)cc3)N3CCC(NCCOC)CC3)ccc2[nH]c1=O` (stereo not shown) [Compound 86], the IC50 at PARP-1 enzyme [1] was 292 nM; at PARP-1 enzyme [2] it was 2240 nM.
Regarding `CCc1cc2cc(C(c3cccc(C(F)(F)F)c3)N3CCC(NCCOC)CC3)ccc2[nH]c1=O` (stereo not shown) [Compound 87], the values for the IC50 on PARP-1 enzyme [1] and on PARP-1 enzyme [2] were 589 nM and 4950 nM, respectively.
The like results for `Cc1cc2cc(C(c3ccccc3)C3CCCN(C)C3)ccc2[nH]c1=O` (stereo not shown) [Compound 88] were, in that order, 264 nM and 4070 nM.
As to `Cc1cc2cc(C(CCN3CCCCC3)c3ccccc3)ccc2[nH]c1=O` (stereo not shown) [Compound 89], the IC50 on PARP-1 enzyme [1] is 451 nM; on PARP-1 enzyme [2] it was 2680 nM.
For `CCc1cc2cc(C(CCN(C)C)c3cccc(C(F)(F)F)c3)ccc2[nH]c1=O` (stereo not shown) [Compound 91], the IC50 on PARP-1 enzyme [1] is 187 nM; on PARP-1 enzyme [2], 828 nM.
The like results for `CCc1cc2cc(C(CCN(C)C)c3ccccc3)ccc2[nH]c1=O` (stereo not shown) [Compound 92] were, in that order, 105 nM and 1180 nM.
As to `Cc1cc2cc(C(c3ccccc3)N3CCCCC3)ccc2[nH]c1=O` (stereo not shown) [Compound 93], the results for the IC50 at PARP-1 enzyme [1] and at PARP-1 enzyme [2] were 508 nM and 2150 nM, respectively.
The like results for `Cc1cc2cc(C(c3cccc(Cl)c3)n3ccnc3)ccc2[nH]c1=O` (stereo not shown) [Compound 94] were, in that order, 665 nM and 3560 nM.
As for `Cc1cc2cc(C(c3ccc(Cl)cc3)n3ccnc3)ccc2[nH]c1=O` (stereo not shown) [Compound 95], the IC50 on PARP-1 enzyme [1] was 818 nM; on PARP-1 enzyme [2] it was 6350 nM.
The like results for `CCc1cc2cc(C(NC=O)c3ccccc3)ccc2[nH]c1=O` (stereo not shown) [Compound 96] were, in that order, 69.8 nM and 352 nM.
The like results for `Cc1cccc(C(NC=O)c2ccc3[nH]c(=O)c(C)cc3c2)c1` (stereo not shown) [Compound 98] were, in that order, 274 nM and 3830 nM.
`Cc1cc2cc(C(NC=O)c3ccc4c(c3)OCO4)ccc2[nH]c1=O` (stereo not shown) [Compound 99]: the figures for the IC50 on PARP-1 enzyme [1] and at PARP-1 enzyme [2] were 289 nM and 1470 nM, respectively.
For the compound `CCOC(=O)c1ccc(C(NC=O)c2ccc3[nH]c(=O)c(C)cc3c2)cc1` (stereo not shown) [Compound 100], the values for the IC50 on PARP-1 enzyme [1] and on PARP-1 enzyme [2] were 502 nM and 3510 nM, respectively.
Consider `COc1cccc(C(NC=O)c2ccc3[nH]c(=O)c(C)cc3c2)c1` (stereo not shown) [Compound 101], for which the IC50 at PARP-1 enzyme [1] is 773 nM; at PARP-1 enzyme [2], 2840 nM.
In the case of `Cc1cc2cc(C(NC=O)c3ccc(F)cc3)ccc2[nH]c1=O` (stereo not shown) [Compound 102], the IC50 on PARP-1 enzyme [1] is 366 nM; at PARP-1 enzyme [2], 1590 nM.
On to `Cc1cc2cc(CCC(NC=O)c3ccccc3)ccc2[nH]c1=O` (stereo not shown) [Compound 103], for which the results for the IC50 at PARP-1 enzyme [1] and on PARP-1 enzyme [2] were 902 nM and 7730 nM, respectively.
As to `Cc1cc2cc(C(NC=O)c3cccc(Cl)c3)ccc2[nH]c1=O` (stereo not shown) [Compound 104], the IC50 on PARP-1 enzyme [1] is 501 nM; on PARP-1 enzyme [2] it was 2380 nM.
With `Cc1cc2cc(C(NC=O)c3ccc(Cl)cc3)ccc2[nH]c1=O` (stereo not shown) [Compound 105], the IC50 on PARP-1 enzyme [1] is 618 nM; at PARP-1 enzyme [2] it was 1470 nM.
For the compound `Cc1cc2cc(C(NC=O)c3ccccc3)ccc2[nH]c1=O` (stereo not shown) [Compound 106], the IC50 at PARP-1 enzyme [1] was 493 nM; on PARP-1 enzyme [2], 1680 nM.
Regarding `COc1cccc(C(O)c2ccc3[nH]c(=O)c(C)cc3c2)c1` (stereo not shown) [Compound 107], the values for the IC50 at PARP-1 enzyme [1] and on PARP-1 enzyme [2] were 841 nM and 10000 nM, respectively.
Take `CCOC(=O)c1ccc(C(O)c2ccc3[nH]c(=O)c(C)cc3c2)cc1` (stereo not shown) [Compound 109]: the IC50 at PARP-1 enzyme [1] is 755 nM; at PARP-1 enzyme [2], 2320 nM.
Consider `CCc1cc2cc(C(O)c3ccccc3)ccc2[nH]c1=O` (stereo not shown) [Compound 110], for which the IC50 at PARP-1 enzyme [1] is 277 nM; at PARP-1 enzyme [2] it was 2580 nM.
Regarding `Cc1cc2cc(C(O)c3ccc4c(c3)OCO4)ccc2[nH]c1=O` (stereo not shown) [Compound 111], the IC50 on PARP-1 enzyme [1] was 611 nM; on PARP-1 enzyme [2], 4430 nM.
In the case of `C#CC(O)(c1ccccc1)c1ccc2[nH]c(=O)c(C)cc2c1` (stereo not shown) [Compound 112], the IC50 at PARP-1 enzyme [1] is 689 nM; at PARP-1 enzyme [2], 2710 nM.
For `CCc1nc2cc(CC(=O)c3ccc(Cl)cc3)ccc2[nH]c1=O` [Compound 113], the IC50 on PARP-1 enzyme [1] was 556 nM; at PARP-1 enzyme [2], 5930 nM.
Turning to `CCc1nc2cc(CC(c3ccc(Cl)cc3)N3CCCCC3)ccc2[nH]c1=O` (stereo not shown) [Compound 114], the figures for the IC50 on PARP-1 enzyme [1] and on PARP-1 enzyme [2] were 552 nM and 1580 nM, respectively.
For `CCc1nc2cc(C(c3cccc(F)c3)n3ccnc3)ccc2[nH]c1=O` (stereo not shown) [Compound 115], the results for the IC50 on PARP-1 enzyme [1] and on PARP-1 enzyme [2] were 818 nM and 3440 nM, respectively.
`CCc1nc2cc(C(c3ccc(Cl)cc3)n3cnc(C)c3)ccc2[nH]c1=O` (stereo not shown) [Compound 122]: the IC50 on PARP-1 enzyme [1] was 877 nM; on PARP-1 enzyme [2] it was 2700 nM.
As to `CCc1nc2cc(C(c3cccc(Cl)c3)n3ccnc3)ccc2[nH]c1=O` (stereo not shown) [Compound 123], the IC50 on PARP-1 enzyme [1] is 612 nM; on PARP-1 enzyme [2] it was 3300 nM.
Turning to `CCc1nc2cc(C(c3ccc(Cl)cc3)N3CCCCC3)ccc2[nH]c1=O` (stereo not shown) [Compound 124], the figures for the IC50 on PARP-1 enzyme [1] and on PARP-1 enzyme [2] were 1570 nM and 1380 nM, respectively.
As to `CCc1nc2cc(C(c3ccc(F)cc3)n3ccnc3)ccc2[nH]c1=O` (stereo not shown) [Compound 125], the IC50 on PARP-1 enzyme [1] is 711 nM; on PARP-1 enzyme [2], 5610 nM.
The like results for `CCc1nc2cc(C(c3ccc(Cl)cc3)n3ccnc3)ccc2[nH]c1=O` (stereo not shown) [Compound 126] were, in that order, 573 nM and 2250 nM.
